The values that follow come from US10654845B2, “2-(het)aryl-substituted fused bicyclic heterocycle derivatives as pesticides” (BAYER CROPSCIENCE AKTIENGESELLSCHAFT, priority 2015, dated 2020).

Data set [1] is described as follows: log P by HPLC on reversed-phase column (C18), EEC Directive 79/831 Annex V.A8. An excerpt: Called log P (HCOOH) in the table.
Called log P (neutral) in the table.

A further data set concerns Phaedon cochleariae. The experiment in a line: Phaedon cochleariae spray test. It counts as in vivo. The conditions noted are these: 500 g/ha, after 7 days, beetle larvae killed; for pest or weed control at 500 g/ha: Phaedon cochleariae, 168 h, read-out: efficacy in %. Here is the method:
Phaedon cochleariae-Spray Test
Solvent: 78.0 parts by weight of acetone
• 1.5 parts by weight of dimethylformamide Emulsifier: alkylaryl polyglycol ether
To produce a suitable preparation of active compound, 1 part by weight of active compound is dissolved using the stated parts by weight of solvent and made up with water containing an emulsifier concentration of 1000 ppm until the desired concentration is attained. To produce further test concentrations, the preparation is diluted with emulsifier-containing water.
After 7 days, the efficacy in % is determined. 100% means that all the beetle larvae have been killed; 0% means that no beetle larvae have been killed.

Setting [2] is: reversed-phase HPLC column (C18), pH 7.8, log P (neutral), preparation examples, neutral range, pH 7.8.
The mark [3] stands for this setting: reversed-phase HPLC column (C18), pH 2.7, logP-acidic, LC-MS acidic range, pH 2.7 (HCOOH), C18, 55° C.
[4] abbreviates: reversed-phase HPLC column (C18), pH 7.8, logP-neutral, LC-MS neutral range, pH 7.8, C18, 55° C.

For the compound `CCS(=O)(=O)c1ccc(C(=O)O)nc1-c1nc2cc(C(F)(F)F)ncc2n1C` [5-(Ethylsulphonyl)-6-[3-methyl-6-(trifluoromethyl)-3H-imidazo[4,5-c]pyridin-2-yl]pyridine-2-carboxylic acid], the chromatographic logP (in general, lipophilicity estimated from chromatographic retention) in data set [1] (setting [2]) is 0.76.
As for `Cn1c(-c2nc(F)ccc2F)nc2cc(C(F)(F)F)ncc21` [Ex. IX-2, 2-(3,6-Difluoropyridin-2-yl)-3-methyl-6-(trifluoromethyl)-3H-imidazo[4,5-c]pyridine], the chromatographic logP in data set [1] (setting [2]) came out at 2.11.
The compound `CCSc1ccc(F)nc1-c1nc2cc(C(F)(F)F)ncc2n1C` [Ex. XI-2, 2-[3-(Ethylsulphanyl)-6-fluoropyridin-2-yl]-3-methyl-6-(trifluoromethyl)-3H-imidazo[4,5-c]pyridine] yielded a chromatographic logP in data set [1] (setting [2]) of 2.73.
The same measure, in the same setting: the value for `CCS(=O)(=O)c1ccc(F)nc1-c1nc2cc(C(F)(F)F)ncc2n1C` [Ex. XIII-2, 2-[3-(Ethylsulphonyl)-6-fluoropyridin-2-yl]-3-methyl-6-(trifluoromethyl)-3H-imidazo[4,5-c]pyridine] was 2.3.
`CCSc1ccc(NC(=O)C2CC2)nc1-c1nc2cc(C(F)(F)F)ncc2n1C` [Example 1] had an efficacy in % in the data set on Phaedon cochleariae of 100%. Also, the logP-acidic in data set [1] (pH 2.7) was 2.80. For the same compound, the logP-neutral in data set [1] (pH 7.8) worked out at 2.79.
For the compound `CCSc1ccc(S(=O)(=O)CC)c(-c2nc3cc(C(F)(F)F)ncc3n2C)n1` [Example 5, 2-[6-(Ethylsulphanyl)-3-(ethylsulphonyl)pyridin-2-yl]-3-methyl-6-(trifluoromethyl)-3H-imidazo[4,5-c]pyridine], the chromatographic logP in data set [1] (setting [3]) was found to be 3.19; in data set [1] (setting [2]), 3.14; in data set [1] (setting [4]), 3.14.
In the data set with Phaedon cochleariae, `CCSc1ccc(NC(=O)C(F)(F)F)nc1-c1nc2cc(C(F)(F)F)ncc2n1C` [Example 6] displayed an efficacy in % of 100%. This compound also came in with a logP-acidic in data set [1] (pH 2.7) of 3.18.
`CCS(=O)(=O)c1ccc(C(=O)OC)nc1-c1nc2cc(C(F)(F)F)ncc2n1C` [Example 12, Methyl 5-(ethylsulphonyl)-6-[3-methyl-6-(trifluoromethyl)-3H-imidazo[4,5-c]pyridin-2-yl]pyridine-2-carboxylate]: the chromatographic logP in data set [1] (setting [3]), in data set [1] (setting [2]) and in data set [1] (setting [4]) was 2.17 in each case.
For `CCS(=O)(=O)c1ccc(S(=O)(=O)CC)c(-c2nc3cc(C(F)(F)F)ncc3n2C)n1` [Example 15, 2-[3,6-Bis(ethylsulphonyl)pyridin-2-yl]-3-methyl-6-(trifluoromethyl)-3H-imidazo[4,5-c]pyridine], the pest or weed control at 500 g/ha in the data set on Phaedon cochleariae is 100%. For the same compound, the chromatographic logP was found to be 2.31 in data set [1] (setting [3]), 2.27 in data set [1] (setting [2]) and 2.28 in data set [1] (setting [4]).
Consider `CCS(=O)(=O)c1ccc(Oc2cc(C(F)(F)F)n[nH]2)nc1-c1nc2cc(C(F)(F)F)ncc2n1C` [Example 17], for which the logP-acidic in data set [1] (pH 2.7) turned out to be 2.77. For the same compound, the logP-neutral in data set [1] (pH 7.8) worked out at 2.69.
In data set [1] (pH 2.7), `CCSc1ccc(NC(=O)c2ccccc2)nc1-c1nc2cc(C(F)(F)F)ncc2n1C` [Example 19] had a logP-acidic of 3.36.
The compound `CCS(=O)(=O)c1ccc(N(S(C)(=O)=O)S(C)(=O)=O)nc1-c1nc2cc(C(F)(F)F)ncc2n1C` [Example 25] had a logP-acidic in data set [1] (pH 2.7) of 2.47.
As to `CCS(=O)(=O)c1ccc(NS(C)(=O)=O)nc1-c1nc2cc(C(F)(F)F)ncc2n1C` [Example 26, N-{5-(Ethylsulphonyl)-6-[3-methyl-6-(trifluoromethyl)-3H-imidazo[4,5-c]pyridin-2-yl]pyridin-2-yl}methanesulphonamide], the pest or weed control at 500 g/ha in the data set on Phaedon cochleariae came out at 100%. For the same compound, the values for the chromatographic logP in data set [1] (setting [3]), in data set [1] (setting [2]) and in data set [1] (setting [4]) were 1.92, 0.85 and 0.85, respectively.
On to `CCSc1ccc(NC(=O)CC)nc1-c1nc2cc(C(F)(F)F)ncc2n1C` [Example 27], for which, in the data set with Phaedon cochleariae, the efficacy in % came to 100%. In data set [1] (pH 2.7), this compound registered a logP-acidic of 2.73. In data set [1] (pH 7.8), this compound yielded a logP-neutral of 2.62.
In the case of `CCS(=O)(=O)c1ccc(SC)nc1-c1nc2cc(C(F)(F)F)ncc2n1C` [Example 28, 2-[3-(Ethylsulphonyl)-6-(methylsulphanyl)pyridin-2-yl]-3-methyl-6-(trifluoromethyl)-3H-imidazo[4,5-c]pyridine], the chromatographic logP was 2.81 in data set [1] (setting [3]), 2.75 in data set [1] (setting [2]) and 2.75 in data set [1] (setting [4]).
As to `CCS(=O)(=O)c1ccc(SCc2ccccc2)nc1-c1nc2cc(C(F)(F)F)ncc2n1C` [Example 30, 2-[6-(Benzylsulphanyl)-3-(ethylsulphonyl)pyridin-2-yl]-3-methyl-6-(trifluoromethyl)-3H-imidazo[4,5-c]pyridine], the chromatographic logP in data set [1] (pH 2.7) came to 3.81; in data set [1] (pH 7.8), 3.72.
`CCNC(=S)c1ccc(S(=O)(=O)CC)c(-c2nc3cc(C(F)(F)F)ncc3n2C)n1` [Example 35] yielded a logP-acidic in data set [1] (pH 2.7) of 3.17. Besides, the logP-neutral in data set [1] (pH 7.8) was 3.14.
In data set [1] (pH 2.7), `CCS(=O)(=O)c1ccc([S+]([O-])Cc2ccccc2)nc1-c1nc2cc(C(F)(F)F)ncc2n1C` (stereo not drawn) [Example 39] displayed a logP-acidic of 2.66. Moreover, the logP-neutral in data set [1] (pH 7.8) is listed as 2.66.
`CCS(=N)(=O)c1ccc(S(=O)(=O)CC)c(-c2nc3cc(C(F)(F)F)ncc3n2C)n1` (stereo not drawn) [Example 41, 2-[6-(S-Ethylsulphonimidoyl)-3-(ethylsulphonyl)pyridin-2-yl]-3-methyl-6-(trifluoromethyl)-3H-imidazo[4,5-c]pyridine]: the chromatographic logP in data set [1] (setting [3]) turned out to be 1.78; in data set [1] (setting [2]), 1.79; in data set [1] (setting [4]), 1.79.
Regarding `CCS(=O)(=O)c1ccc(Sc2ccccc2)nc1-c1nc2cc(C(F)(F)F)ncc2n1C` [Example 42], the logP-acidic in data set [1] (LC-MS acidic range, pH 2.7 (HCOOH), C18, 55° C.) worked out at 3.68. The same compound gave a logP-neutral in data set [1] (LC-MS neutral range, pH 7.8, C18, 55° C.) of 3.64.
As for `CCS(=O)(=O)c1ccc(S(C)(=O)=O)nc1-c1nc2cc(C(F)(F)F)ncc2n1C` [Example 45], in data set [1] (pH 2.7), the logP-acidic amounted to 2.08. In addition, the logP-neutral in data set [1] (pH 7.8) turned out to be 2.08.
`CCS(=O)(=O)c1ccc(S(=O)(=O)NC)nc1-c1nc2cc(C(F)(F)F)ncc2n1C` [Example 47] returned a logP-acidic in data set [1] (pH 2.7) of 2.15. In data set [1] (pH 7.8), this compound registered a logP-neutral of 2.08.
Regarding `CCNS(=O)(=O)c1ccc(S(=O)(=O)CC)c(-c2nc3cc(C(F)(F)F)ncc3n2C)n1` [Example 48], the logP-acidic in data set [1] (pH 2.7) turned out to be 2.36. In data set [1] (pH 7.8), this compound showed a logP-neutral of 2.30.
Turning to `CCS(=O)(=O)c1ccc(S(=O)(=O)NC(C)C)nc1-c1nc2cc(C(F)(F)F)ncc2n1C` [Example 49, 5-(Ethylsulphonyl)-N-isopropyl-6-[3-methyl-6-(trifluoromethyl)-3H-imidazo[4,5-c]pyridin-2-yl]pyridine-2-sulphonamide], the chromatographic logP is 2.56 in data set [1] (setting [3]), 2.49 in data set [1] (setting [2]) and 2.49 in data set [1] (setting [4]).
Consider `CCS(=O)(=O)c1ccc(S(=O)(=O)N(C)C)nc1-c1nc2cc(C(F)(F)F)ncc2n1C` [Example 50], for which the logP-acidic in data set [1] (pH 2.7) is recorded as 2.54. The compound further had a logP-neutral in data set [1] (pH 7.8) of 2.47.
`CCS(=O)(=O)c1ccc(NC(=O)Cc2ccccc2)nc1-c1nc2cc(C(F)(F)F)ncc2n1C` [Example 68] came in with an efficacy in % in the data set on Phaedon cochleariae of 100%.
As to `CCS(=O)(=O)c1ccc(NC(C)=O)nc1-c1nc2cc(C(F)(F)F)ncc2n1C` [N-[5-Ethylsulphonyl-6-[3-methyl-6-(trifluoromethyl)imidazo[4,5-c]pyridin-2-yl]-2-pyridyl]acetamide], the chromatographic logP in data set [1] (setting [2]) was found to be 2.01.
